The results in this text go back to patent US5460829A, “Pharmaceutical compositions based on ebastine or analogues thereof” (Rhone-Poulenc Rorer S.A., priority 1991, dated 1995).

The nature of one data set: Water solubility at pH 2. It counts as physicochemical.
Data set [1] can be described thus: Bioavailability of solid form. Format: in vivo. The settings on record: formulated in solid form.
A short description of data set [2]: Dissolution of the active principle in aqueous/acidic medium. It counts as physicochemical. The note with it: oral administration.

SMILES strings stand for the structures.

On to `CC(C)(C)c1ccc(C(=O)CCCN2CCC(OC(c3ccccc3)c3ccccc3)CC2)cc1` [compound of formula (I) lactate], for which the solubility (usually the dissolved amount per volume that the medium holds) in the data set “Water solubility at pH 2” (water, in the form of the lactate, pH 2, read-out: optimum solubility) was 800 µg/mL.

Turning to `CC(C)(C)c1ccc(C(=O)CCCN2CCC(OC(c3ccccc3)c3ccccc3)CC2)cc1` [compound of formula (I), 4-diphenylmethoxy-1-[3-(4-tert-butylbenzoyl)propyl]piperidine], in data set [1], the bioavailability entry is recorded as “very mediocre”. For the same compound, in “Water solubility at pH 2” (basic non-salified form, relative to the lactate), the water solubility result is listed as “even lower”. In addition, the “dissolution time in the aqueous medium of the stomach” value in data set [2] is reported as “very long”.
